The values that follow are results of earlier work, collected in US20050181001A1, “Topical formulation for insect repellents” (priority 2003, published 2005).

For data set [1], the system named is mosquitoes. The following applies: oral.
Data set [2] has as its system mosquitoes.

For the compound `Cc1ncc(C[n+]2csc(CCO)c2C)c(N)n1` [thiamine], in the data set on mosquitoes [1], the “time before the odor fully saturates the skin and becomes effective” value was “up to 2 weeks”. The “reduction of mosquito bites” value in the data set with mosquitoes [1] (25 to 50 mg three times per day) is reported as “effective in reducing mosquito bites”. Regarding `CC1=COC(=O)C2C(C)CCC12` (stereo not drawn) [nepetalactone], the “effectiveness at repelling mosquitoes relative to DEET” value with mosquitoes [2] is reported as “more effective at repelling mosquitoes than DEET”.
